{"source": "patent US20040082623A1", "about": "“Fmoc-l-leucine and derivatives thereof as ppar-gamma agonists” (priority 2003, published 2004)", "key": {"[1]": {"biological_target": "T1, PPARγ (Homo sapiens, UniProt P37231)", "T1 construct": "a construct containing the entire cDNA of the human PPARγ2 (hPPARγ2); host or cells: cell-free coupled transcription/translation system", "T1 sequence (P37231 1-505)": "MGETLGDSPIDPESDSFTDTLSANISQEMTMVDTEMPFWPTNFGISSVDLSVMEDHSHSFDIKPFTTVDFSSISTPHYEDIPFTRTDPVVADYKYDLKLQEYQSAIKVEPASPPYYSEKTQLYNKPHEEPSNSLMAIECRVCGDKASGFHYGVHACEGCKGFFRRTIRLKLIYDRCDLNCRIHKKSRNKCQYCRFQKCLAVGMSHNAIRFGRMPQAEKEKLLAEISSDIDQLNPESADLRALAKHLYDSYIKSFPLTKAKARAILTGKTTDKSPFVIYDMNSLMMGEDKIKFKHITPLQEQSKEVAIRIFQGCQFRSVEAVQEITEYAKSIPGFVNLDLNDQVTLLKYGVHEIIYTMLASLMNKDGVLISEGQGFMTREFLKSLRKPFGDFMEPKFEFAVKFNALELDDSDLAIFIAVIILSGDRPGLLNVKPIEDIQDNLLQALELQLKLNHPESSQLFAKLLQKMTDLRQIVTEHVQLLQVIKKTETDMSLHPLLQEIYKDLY", "experiment": "Protease protection (partial trypsin digestion of 35S-PPARγ)", "format": "binding", "conditions": "compound 10^−4M, increasing trypsin", "procedure": "The pSG5-hPPARγ2 plasmid was used to synthesize ? ^35S-radiolabeled PPARγ in a coupled transcription/translation system according to the protocol of the manufacturer (Promega, Madison, Wis.). The transcription/translation reactions were subsequently aliquoted into 22.5 μl and 2,5 μl of phosphate buffered saline +/− compound were added. The mixture was separated into 4.5 μl aliquots and 0.5 μl of distilled water or distilled water-solubilized trypsin were added. The protease digestion were allowed to proceed for 10 min at 25° C. and terminated by the addition denaturing loading buffer. After separation of the digestion products in a gel SDS ? PAGE 12% acrylamide, the gel was fixed in 10% acetic acid (v/v) 30% ethanol (v/v) ? for 30 min, treated in Amplify™ (Amersham, Orsay, France) and dried. The radiolabeled digestion products were visualized by autoradiography."}, "[2]": {"tested_on": "3T3-L1 cells", "experiment": "Adipocyte differentiation of 3T3-L1 cells (Northern blot, Oil Red O)", "format": "cell-based, murine", "procedure": "Confluent 3T3-L1 cells were incubated with 2 μM insulin, 1 μM dexamethasone, and 0.25 mM isobuthyl methyl xanthine for two days. […] A: RNA was isolated from 3T3-L1 cells after different times of differentiation induction. Blots were hybridized with 36B4 (to control for RNA loading); LPL or aP2 cDNAs. B: Cells were stained with Oil Red O after 6 days. LPL: lipoprotein lipase.\n3T3-L1 cells (ATCC, Rockville, Md.) were grown to confluence in medium ? (Dulbecco's modified Eagle's Medium with 10% fetal calf serum, 100 units/n ? penicillin, and 100 μg/ml streptomycin). Confluent cells were incubated in medium ? containing 2 μM insulin, 1 μM dexamethasone, and 0.25 mM isobuthyl meth ? xanthine for two days. Then, the cells were incubated in medium A in presence ? absence of PPARγ y agonist for 4 days, changing the medium every 2 day ? Adipogenesis was evaluated by analysis of the expression of adipocyte-specif ? markers and by staining of lipids with Oil Red O (Chawla and Lazar, 1994).\nAdipogenesis was monitored by analysis of lipoprotein lipase (LPL) and aP2 mRNA levels as markers of adipocyte differentiation and by studying morphological changes associated with the differentiation process."}, "[3]": {"tested_on": "C57BL/6j mice", "experiment": "Intraperitoneal glucose tolerance test in C57BL/6j mice", "format": "in vivo", "conditions": "for maximum glucose levels in IPGTT: 7 days, control 440", "experimental": "Mice were treated with 2 different doses of F-L-Leu (10 and 30 mg/kg/days) during 7 days and then IPGTT was performed."}, "[4]": {"tested_on": "TNBS-treated Balb/c mice", "experiment": "TNBS-induced colitis in Balb/c mice", "format": "in vivo", "conditions": "50 mg/kg/day", "experimental": "FIG. 9: F-L-Leu protects against colon inflammation in TNBS-treated Balb/c Mice. A: Ameho histologic scores (left panel) and survival rate (right panel) in TNBS-treated mice injected either with DMSO or F-L-Leu (50 mg/kg/day). B: TNFα and IL-1β mRNA levels in the colon of TNBS-treated mice injected with DMSO or F-L-Leu (50 mg/kg/day). Results are expressed as mean±SEM.\nRNA was isolated from 3T3-L1 cells by the acid guanidinium ? thiocyanate/phenol/chloroform method (Chomczynski and Sacchi, 1987). Northern blot analysis of total cellular RNA was performed as described (Auwerx et al., 1989) ? Lipoprotein lipase (LPL), aP2 and 36B4 were used as probes (Graves et al., 1992 ? Laborda, 1991; Lefebvre et al., 1997). For RT-competitive PCR, total RNA (5-10 μg ? was reverse transcribed into complementary DNA (cDNA) (Desreumaux et al., 1999 ? Fajas et al., 1997). The RT reaction mixture was amplified by PCR using sense an ? antisense primers specific for β-actin, TNFα and IL-1β. The samples were subjected t ? 40 PCR cycles, consisting of denaturation for 1 min at 94° C., primer annealing for ? min at 52-58° C., and primer extension for 1.5 min at 72° C. using a Gene Amp PCR ? System 9700 (Perkin-Elner Corporation, Foster City, Calif.). The quantity of mRNA was expressed as the number of TNFα or IL-1β cDNA per β-actin cDNA molecules.\nMale Balb/c mice (8 per group) were used for the colitis studies (Jackson laboratories, Bar Harbor, Me.). Colitis was induced by administration of 40 μl of a solution of TNBS (150 mg/kg, Fluka, Saint Quentin Fallavier, France) dissolved in NaCl 0.9% and mixed with an equal volume of ethanol (50% ethanol). This solution was administered intrarectally via a 3.5 F catheter (Ref EO 3416-1, Biotrol, Chelles, France) inserted 4 cm proximal to the anus in anesthesized mice [Xylasine (50 mg/kg of Rompun® 2%, Bayer Pharma, Puteaux, France) and Ketamine (50 mg/kg of Imalgene® 1000, Rhône Mérieux, France)]. Animals were sacrified by cervical dislocation under ether anesthesia two days after TNBS administration. The colon was quickly removed, opened, washed. A 2 cm colonic specimen located precisely 2 cm above the anal canal was dissected systematically in 4 parts. One part was fixed overnight in 4% paraformaldehyde acid at 4° C., dehydrated in alcohol and embedded in paraffin. Sections (5 μm) were then deparaffined with xylene and rehydrated by ethanol treatment. Stained sections with haematoxylin-eosin were examined blindly by a pathologist and scored according to the Ameho criteria (Ameho et al., 1997). The other parts of the colon were used for RNA isolation for the quantification of TNFα and IL1β mRNA expression."}, "[5]": {"biological_target": "PPARγ DE/p300Nt-GST (Homo sapiens, UniProt P37231)", "sequence (Q09472 2-516 partner limits assumed, one chain of several)": "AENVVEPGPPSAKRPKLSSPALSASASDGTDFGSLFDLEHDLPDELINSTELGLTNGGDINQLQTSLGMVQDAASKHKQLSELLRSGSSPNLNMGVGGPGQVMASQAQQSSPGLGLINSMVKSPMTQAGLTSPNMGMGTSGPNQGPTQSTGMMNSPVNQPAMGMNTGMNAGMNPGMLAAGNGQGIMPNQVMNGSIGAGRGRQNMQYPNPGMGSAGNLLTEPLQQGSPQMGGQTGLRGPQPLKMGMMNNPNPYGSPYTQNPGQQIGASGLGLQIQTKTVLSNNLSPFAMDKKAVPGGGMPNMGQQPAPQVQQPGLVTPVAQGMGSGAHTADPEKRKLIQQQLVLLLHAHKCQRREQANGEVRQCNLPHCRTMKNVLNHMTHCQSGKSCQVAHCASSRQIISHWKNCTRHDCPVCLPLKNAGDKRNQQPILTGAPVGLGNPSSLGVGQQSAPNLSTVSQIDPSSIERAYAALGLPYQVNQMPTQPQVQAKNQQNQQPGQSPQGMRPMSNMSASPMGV", "source_text": "The beads were then washed and the samples separated on SDS-PAGE and blotted. The blot was developed with anti-histidine antibodies.\nThe p300Nt-GST, fusion protein was generated by cloning the N-terminal part of the p300 protein (a.a. 2 to 516) downstream of the glutathione-S-transferase (GST) protein in the pGex-T1 vector (Pharmacia, Orsay, France). The fusion proteins were then expressed in Escherichia coli and purified on a glutathione affinity matrix (Pharmacia). Human PPARγ (aa. 203 to 477 of PPARγ) was subcloned into the pET15b (Novagen, Madison, Wis.) expression vector. The his-tagPPARγ2DE203-477 proteins were produced as follow. The protein was purified using a metal chelate affinity column with an affinity column Co^2+ coupled agarose (High Trap chelatin, Pharmacia). The protein was eluted with 20 mM Tris-HCl, 500 M NaCl, 130 mM imidazole and 1-2 propanediol 2.5% (pH 8.5). A second purification step was made by gel filtration (Superdex 200 16/60, Pharmacia). The protein was eluted with 20 mM Tris-HCl, 100 mM NaCl, 5 mM DTT and 1-2 propanediol 2,5% (pH 8.5)."}, "[6]": {"tested_on": "db/db mice", "procedure": "Intraperitoneal glucose tolerance test (IPGTT) in C57BL/6j (A) or db/db (B) mice 10 to 12 weeks old (n=8).\nAll mice were maintained in a temperature-controlled (25° C.) facility with a strict 12 h ? light/dark cycle and were given free access to food (standard mice chow; DO4, UAR ? France) and water.\nC57B1/6J and db/db mice (8 per group) were obtained through the Janvier laboratorie ? (Laval-Le Genest, France)."}, "[7]": {"conditions": "3T3-L1, 10^−5 M, extent close to rosiglitazone 10^−7 M"}}, "data": [{"smiles": "CC(C)CC(NC(=O)OCC1c2ccccc2-c2ccccc21)C(=O)O", "note": "[F-L-Leu, N-(9-fluroroenylmethyloxycarbonyl)-L-Leucine]", "values": [{"measurement": "protection of PPARγ from trypsin digestion (conformation change)", "setting": "[1]", "result": "produced a protease protection"}, {"measurement": "LPL mRNA levels", "setting": "[2]; [7]", "result": "significantly stimulated"}, {"measurement": "aP2 mRNA levels", "setting": "[2]; [7]", "result": "significantly stimulated"}, {"measurement": "neutral lipid accumulation (Oil Red O staining)", "setting": "[2]; 3T3-L1, 6 days, F-L-Leu 10^−5 M, rosiglitazone 10^−7 M", "result": "capable of inducing neutral lipid accumulation"}, {"measurement": "insulin sensitivity in normal animals", "setting": "[3]; 30 mg/kg/day", "result": "significantly improve insulin sensitivity"}, {"measurement": "clearance of intraperitoneally administered glucose vs vehicle", "setting": "[3]; C57BL/6j, 10 mg/kg/day", "result": "comparable rate"}, {"measurement": "maximum glucose levels in IPGTT", "setting": "[3]; C57BL/6j, 10 mg/kg/day i.p.", "result": 440, "unit": "mg/dL"}, {"measurement": "maximum glucose levels in IPGTT", "setting": "[3]; C57BL/6j, 30 mg/kg/day i.p.", "result": 320, "unit": "mg/dL"}, {"measurement": "area under the curve in IPGTT", "setting": "[3]; C57BL/6j, 30 mg/kg/day, vs control or lower dose", "result": "significantly lower"}, {"measurement": "Ameho histologic score", "setting": "[4]", "result": "reduced significantly"}, {"measurement": "IL-1β mRNA levels in colon", "setting": "[4]", "result": "significant decrease"}, {"measurement": "TNFα mRNA levels in colon", "setting": "[4]", "result": "significant decrease"}, {"measurement": "survival rate", "setting": "[4]; 4 days, two days after TNBS, control 76%", "result": 100, "unit": "%"}, {"measurement": "potency relative to rosiglitazone (fold lower)", "setting": "[5]; p300 pull-down", "result": "2- to 3 fold"}, {"measurement": "formation of PPARγ DE/p300Nt-GST complexes", "setting": "[5]; vs DMSO, rosiglitazone 10^−4 M, F-L-Leu 10^−3 M", "result": "effectively induced"}, {"measurement": "liver weight relative to control or rosiglitazone-treated mice", "setting": "[6]; data not shown", "result": "tendency to diminution of the liver weight"}, {"measurement": "insulin sensitivity compared with an equivalent dose of rosiglitazone", "setting": "[6]; db/db mice, 1 mg/kg/day as printed", "result": "improved insulin sensitivity more dramatically"}, {"measurement": "maximal glycemia in IPGTT", "setting": "[6]; db/db, 10 mg/kg/day i.p., 7 days, DMSO control 500", "result": 420, "unit": "mg/dL"}, {"measurement": "time of maximal glucose level after glucose injection", "setting": "[6]; db/db, 10 mg/kg/day, 7 days", "result": 20, "unit": "min"}, {"measurement": "time to decrease to normal (100 mg/dl) glucose values", "setting": "[6]; db/db, 10 mg/kg/day, 7 days", "result": "≤ 120", "unit": "min"}, {"measurement": "fasting serum insulin levels (mean)", "setting": "[6]; db/db, 7 days treatment, DMSO group 180", "result": 70, "unit": "μUI/mL"}]}]}
